Laboratory results reported in patent US7220730B2, “Cancer specific radiolabeled conjugates regulated by the cell cycle for the treatment and diagnosis of cancer” (Board of Regents of the University of Nebraska, priority 2003, dated 2007).

Columns and labels:
OVCAR-3 cells [1] = assay: Binding of ^125IUdR-DHT to OVCAR-3 cells in vitro (Scatchard plot, with/without excess cold DHT)
Method: To generate a Scatchard plot for the binding of ^125IUdR-DHT to OVCAR-3 cells, OVCAR-3 cells were thawed from a stock or freshly harvested by a lavage of the peritoneal cavity of athymic mice bearing intraperitoneal ascites OVCAR-3 tumors. The cells were twice washed with full media (RPMI 1640 medium with 2 mM L-glutamine adjusted to contain 1.5 g/L sodium bicarbonate, 4.5 g/L glucose, 10 mM HEPES, and 1.0 mM sodium pyruvate and supplemented with 0.01 mg/ml bovine insulin, 80%; fetal bovine serum, 20%). The cells were spun at 450 rpm for 10 minutes to collect a cell pellet and were then resuspended in full media to achieve approximately 5×10^6 cells/mL. The cells were counted and their viability was determined by Trypan Blue staining. “Cold” dihydrotestosterone (DHT) was dissolved in 95% ethanol to create a stock solution of 5 μg/mL. Similarly, 95% ethanol was added to ^125IUdR-DHT to produce 250,000 cpm/100 μL.
The tubes were capped and gently vortexed. The “total applied” counts were then determined in a gamma counter. […] A known volume of the supernatant from the centrifugation was transfered to new plastic tubes and counted in a gamma counter to determine the “free” counts. The cell pellet with the remainder of the supernatant was then counted in the gamma counter. “Bound” counts were then determined by subtracting counts associated with the supernatant from the remaining counts.

OVCAR-3 cells [2] = assay: Stability of ^125IUdR-DHT in growth medium in the presence or absence of OVCAR-3 cells (TLC); assay type: in vitro ADME
Method: OVCAR-3 cells in full growth medium (RPMI 1640 medium with 2 mM L-glutamine adjusted to contain 1.5 g/L sodium bicarbonate, 4.5 g/L glucose, 10 mM HEPES, and 1.0 mM sodium pyruvate and supplemented with 0.01 mg/ml bovine insulin, 80%; fetal bovine serum, 20%) at 1×10^6 cells per flask were plated onto three Petri dishes and allowed to attach for 24 hours. As a control, one dish without cells was subjected to the same treatments. After 24 hours, the cells were trypsinized from one dish to determine cell number and viability. The media was then aspirated from the remaining dishes, including the control, and replaced with 1 mL of fresh media. 0.1 mCi of ^125IUdR-DHT in 0.10 mL of ethanol was added to all of the dishes. The dishes were incubated at 37° C. At 0, 5, 15, 30, 60, 120, 180, and 240 minutes, 10 μL of media was removed from each of the dishes of which 2 μL was added to a silica gel TLC plate. Additionally, 2 μL was added to glass gamma counter tubes as standards. The TLC plates were run with a 3:1 mixture of ethyl acetate and hexane (v/v). When the solvent front approached the end of the plate, the plate was removed from the solvent, dried, and cut into strips. The standards and the strips were then counted. The percent recovered ^125IUdR-DHT was calculated as a ratio of the intact ^125IUdR-DHT at a given timepoint divided by the intact ^125IUdR-DHT at the 0 minute timepoint (see FIG. 2A). Similar calculations were used to determine the kinetics of the appearance of ^125IUdR in the medium, which was determined to occur at a rate of 8.5%/hour (FIG. 2B). This rate is in comparison to the disappearance of ^125IUdR-DHT from the media at a rate of 16%/hour. […] The inclusion of a negatively-charged monophosphate assists in the retention of these compounds in the cell.
This allows at least a partial retention of the negatively charged succinate inside the cell where the next hydrolytic step frees ^125IUdR to be taken up by DNA.

[3] = Biodistribution in athymic mice bearing AR-expressing OVCAR-3 tumors; assay type: in vivo
Excerpt: (§1) With regard to ^125IUdR-3′-DHT, the biodistribution of the reagent (0.001–0.010 mCi/mouse; […]) in athymic mice bearing AR-expressing OVCAR-3 tumors is seen in Table 3. Additionally, the efficacy of the reagent against the intraperitoneal OVCAR-3 tumors after 6 fractionated doses (0.1 mCi/dose/mouse; […]) is seen in Table 4.

[4] = tested on: intraperitoneal OVCAR-3 tumors; assay: Efficacy against intraperitoneal OVCAR-3 tumors after 6 fractionated doses; assay type: in vivo, athymic mice; settings: 0.1 mCi/dose/mouse
Excerpt: as §1

[5] = Hydrophobicity / aqueous solubility of the conjugates (descriptive); assay type: physicochemical
[6] = target: T1, sex hormone binding globulin (SHBG) (Homo sapiens, UniProt P04278); assay: Binding of 5′-MP-^125IUdR-3′-DHT to sex hormone binding globulin (charcoal-dextran, size-exclusion HPLC); settings: FIG. 3
T1 sequence (P04278 30-402): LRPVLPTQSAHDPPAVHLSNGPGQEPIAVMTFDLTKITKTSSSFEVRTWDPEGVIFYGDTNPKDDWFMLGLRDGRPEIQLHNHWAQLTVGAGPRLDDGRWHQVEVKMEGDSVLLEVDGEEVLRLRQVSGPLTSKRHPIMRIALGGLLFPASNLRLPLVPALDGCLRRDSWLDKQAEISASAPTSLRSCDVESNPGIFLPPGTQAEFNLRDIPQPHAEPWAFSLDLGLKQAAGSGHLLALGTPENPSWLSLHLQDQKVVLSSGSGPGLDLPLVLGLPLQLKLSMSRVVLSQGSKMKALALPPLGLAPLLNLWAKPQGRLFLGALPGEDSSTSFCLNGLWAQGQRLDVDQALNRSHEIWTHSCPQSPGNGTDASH
Method: The tubes were then vortexed for about 30 seconds and incubated for 10 minutes in a water bath at 37° C. The samples were then incubated at 0–4° C. for 3 hours. 0.1 mL aliquots were removed from the samples and counted in a gamma counter. To each tube, 0.4 mL of ice-cold charcoal-dextran solution was added and the tubes were incubated on ice for 15 minutes. The samples were then centrifuged at 4° C. for 20 minutes at 1,000 rpm. 0.5 ml aliquots were taken for gamma-counting and the residue was also counted. Selected samples were analyzed by size-exclusion HPLC (tandem TSK2000 and TSK3000 size exclusion columns (TosoHaas; Montgomeryville, Pa.) with a guard column using PBS, pH7.2 as the eluant).

[7] = OVCAR-3 cells, full growth medium, 37° C.

For `CC12CCC(=O)CC1CCC1C2CCC2(C)C(OC(=O)CCC(=O)OC3CC(n4cc([125I])c(=O)[nH]c4=O)OC3CO)CCC12` (stereo not shown) [^125IUdR-DHT, ^125IUdR-3′-succinyl-DHT], the “binding to OVCAR-3 cells (Scatchard)” value (OVCAR-3 cells [1]; 5 × 10^6 cells, 0–4° C., 14–16 hours) was “single type of binding sites with a high affinity”, the “competition by excess DHT for binding” value (OVCAR-3 cells [1]; excess “cold” DHT) was “due to the DHT portion of the drug” and the “rate of appearance of ^125IUdR in the medium” value (OVCAR-3 cells [2]; [7]) was 8.5 %/hour. For the same compound, the “rate of disappearance of ^125IUdR-DHT from the media” value (OVCAR-3 cells [2]; [7]) was 16 %/hour, the “emergence of “free” ^125IUdR in the growth medium” value (OVCAR-3 cells [2]; presence or absence of OVCAR-3 cells) was “requires interaction of the drugs with specific cells” and the “Percent injected dose per gram tissue” value ([3]; Blood, 1.5 h, average of n = 10) was 29.61 Percent injected dose per gram tissue. The “Percent injected dose per gram tissue” value ([3]; Blood, 24 h, average of n = 10) was 0.25 Percent injected dose per gram tissue, the “Percent injected dose per gram tissue” value ([3]; Blood, 48 h, average of n = 10) was 0.30 Percent injected dose per gram tissue and the “Percent injected dose per gram tissue” value ([3]; Blood, 72 h, average of n = 10) was 0.17 Percent injected dose per gram tissue. For the same compound, the “Percent injected dose per gram tissue” value ([3]; Brain, 1.5 h) was 1.91 Percent injected dose per gram tissue, the “Percent injected dose per gram tissue” value ([3]; Brain, 24 h) was 0.03 Percent injected dose per gram tissue and the “Percent injected dose per gram tissue” value ([3]; Brain, 48 h) was 0.05 Percent injected dose per gram tissue. The “Percent injected dose per gram tissue” value ([3]; Brain, 72 h) was 0.04 Percent injected dose per gram tissue, the “Percent injected dose per gram tissue” value ([3]; Kidney, 1.5 h) was 17.67 Percent injected dose per gram tissue and the “Percent injected dose per gram tissue” value ([3]; Kidney, 24 h) was 0.20 Percent injected dose per gram tissue. For the same compound, the “Percent injected dose per gram tissue” value ([3]; Kidney, 48 h) was 0.18 Percent injected dose per gram tissue, the “Percent injected dose per gram tissue” value ([3]; Kidney, 72 h) was 0.22 Percent injected dose per gram tissue and the “Percent injected dose per gram tissue” value ([3]; Liver, 1.5 h) was 11.07 Percent injected dose per gram tissue. For the same compound, the “Percent injected dose per gram tissue” value ([3]; Liver, 24 h) was 0.24 Percent injected dose per gram tissue, the “Percent injected dose per gram tissue” value ([3]; Liver, 48 h) was 0.32 Percent injected dose per gram tissue and the “Percent injected dose per gram tissue” value ([3]; Liver, 72 h) was 0.33 Percent injected dose per gram tissue. The “Percent injected dose per gram tissue” value ([3]; OVCAR-3 tumor (IP), 1.5 h) was 20.70 Percent injected dose per gram tissue, the “Percent injected dose per gram tissue” value ([3]; OVCAR-3 tumor (IP), 24 h) was 5.66 Percent injected dose per gram tissue and the “Percent injected dose per gram tissue” value ([3]; OVCAR-3 tumor (IP), 48 h) was 5.41 Percent injected dose per gram tissue. The “Percent injected dose per gram tissue” value ([3]; OVCAR-3 tumor (IP), 72 h) was 3.54 Percent injected dose per gram tissue, the “Percent injected dose per gram tissue” value ([3]; Spleen, 1.5 h) was 15.60 Percent injected dose per gram tissue and the “Percent injected dose per gram tissue” value ([3]; Spleen, 24 h) was 0.59 Percent injected dose per gram tissue. The “Percent injected dose per gram tissue” value ([3]; Spleen, 48 h) was 0.44 Percent injected dose per gram tissue, the “Percent injected dose per gram tissue” value ([3]; Spleen, 72 h) was 0.59 Percent injected dose per gram tissue and the “Percent injected dose per gram tissue” value ([3]; Uterus, 1.5 h) was 11.43 Percent injected dose per gram tissue. The “Percent injected dose per gram tissue” value ([3]; Uterus, 24 h) was 0.54 Percent injected dose per gram tissue, the “Percent injected dose per gram tissue” value ([3]; Uterus, 48 h) was 0.66 Percent injected dose per gram tissue and the “Percent injected dose per gram tissue” value ([3]; Uterus, 72 h) was 0.97 Percent injected dose per gram tissue. The “Percent injected dose per gram tissue” value ([3]; solid OVCAR-3 (approximately 2 mice per group), 1.5 h) was 12.94 Percent injected dose per gram tissue, the “Percent injected dose per gram tissue” value ([3]; solid OVCAR-3 (approximately 2 mice per group), 24 h) was 0.67 Percent injected dose per gram tissue and the “Percent injected dose per gram tissue” value ([3]; solid OVCAR-3 (approximately 2 mice per group), 48 h) was 0.28 Percent injected dose per gram tissue. For the same compound, the “Percent injected dose per gram tissue” value ([3]; solid OVCAR-3 (approximately 2 mice per group), 72 h) was 0.24 Percent injected dose per gram tissue, the median tumor size [4] was 0.244 g and the “range (tumor size)” value [4] was 0.012 to 0.781 g. For the same compound, the mean tumor burden ([4]; average (n = 10) and standard deviation) was 0.304 ± 0.320 g.

With `CC12CCC(=O)CC1CCC1C2CCC2(C)C(OP(=O)(OCC3OC(n4cc([125I])c(=O)[nH]c4=O)CC3O)OC3CCC4C5CCC6CC(=O)CCC6(C)C5CCC34C)CCC12` (stereo not shown) [Conjugate 5, 5′-[^125I]iodo-2′-deoxy-5′-monphosphate-O-(bis-dihydrotestosterone)] the “hydrophilicity / hydrophobicity relative to the other conjugates” value [5] was “most hydrophobic”.

With `CC12CCC(=O)CC1CCC1C2CCC2(C)C(OC(=O)CCC(=O)OC3CC(n4cc([125I])c(=O)[nH]c4=O)OC3COP(=O)(O)O)CCC12` (stereo not shown) [5′-MP-^125IUdR-3′-DHT, 5′-monophosphate-^125IUdR-3′-succinyl-DHT] the “binding to SHBG” value [6] was “specifically bound” and the “competition of SHBG binding by “cold” DHT” value [6] was “competed away”.
